Where two headings read alike, the source gives them in different places.
Biological target: T1, human AspH (His6-AspH315–758) (Homo sapiens, UniProt Q12797)
T1 construct: N-Terminally His6-tagged human AspH315–758 (His6-AspH315–758) was produced in Escherichia coli BL21 (DE3) cells; made in house; host or cells: Escherichia coli BL21 (DE3), pET-28a(+) vector
T1 sequence (Q12797 315-758): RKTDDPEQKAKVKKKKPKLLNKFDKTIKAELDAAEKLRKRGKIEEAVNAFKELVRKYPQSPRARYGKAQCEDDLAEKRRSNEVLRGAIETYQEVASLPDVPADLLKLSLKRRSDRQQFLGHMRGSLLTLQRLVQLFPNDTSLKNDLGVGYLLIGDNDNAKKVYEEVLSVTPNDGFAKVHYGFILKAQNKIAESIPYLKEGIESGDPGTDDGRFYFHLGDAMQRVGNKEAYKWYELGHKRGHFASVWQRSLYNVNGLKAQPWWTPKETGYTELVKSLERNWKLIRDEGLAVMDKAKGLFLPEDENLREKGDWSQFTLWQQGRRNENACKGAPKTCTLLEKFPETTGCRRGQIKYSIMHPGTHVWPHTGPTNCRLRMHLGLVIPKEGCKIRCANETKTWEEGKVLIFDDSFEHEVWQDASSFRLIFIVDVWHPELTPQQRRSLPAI
Test: SPE-MS AspH inhibition assay (hFX-CP101-119 substrate hydroxylation)
Type: biochemical

[1] = AspH-inhibitor screening, 384-well Plate 1
[2] = AspH-inhibitor screening, 384-well Plate 1, substrate conversion
[3] = AspH-inhibitor screening, Plate 1-duplicate
[4] = AspH-inhibitor screening, Plate 1-duplicate, substrate conversion

SMILES | Plate 1 (% inhibition) [1] [%] | Plate 1 (% conversion) [2] [%] | Plate 1-duplicate (% inhibition) [3] [%] | Plate 1-duplicate (% conversion) [4] [%] | Plate 1 (% conversion) [%] | Plate 1 (% inhibition) [%] | Plate 1-duplicate (% conversion) [%] | Plate 1-duplicate (% inhibition) [%]
Cc1cccc(-c2nn3c(c2-c2ccnc4ccc(C(N)=O)cc24)CCC3)n1 [LY2157299] | 5.18 | 47.36 | 4.86 | 49.63 | – | – | – | –
CC(C)(C)Cn1c(N)nc2ccc(-c3[nH]c(C(C)(C)C)nc3-c3ccc(F)cc3)nc21 [LY2228820 (CP868569)] | -13.39 | 55.93 | -13.16 | 58.57 | – | – | – | –
Cc1cnc(NC(=O)Nc2cc(Br)c(C)cc2OC[C@@H]2CNCCO2)cn1 [LY2603618_Rabusertib] | -51.46 | 73.51 | -47.27 | 75.48 | – | – | – | –
Cc1cc(Nc2cc(CN3CCOCC3)c3nc(C)c(Cc4ccc(Cl)cc4F)n3n2)n[nH]1 [LY2784544_Gandotinib] | -63.83 | 79.23 | -64.31 | 83.93 | – | – | – | –
CN(C)C[C@@H]1CCn2cc(c3ccccc32)C2=C(C(=O)NC2=O)c2cn(c3ccccc23)CCO1.CS(=O)(=O)O [LY 333531 mesylate_Ruboxistaurin] | 10.44 | 44.93 | -5.64 | 54.84 | – | – | – | –
CS(=O)(=O)CCNCc1ccc(-c2ccc3ncnc(Nc4ccc(OCc5cccc(F)c5)c(Cl)c4)c3c2)o1.Cc1ccc(S(=O)(=O)O)cc1.Cc1ccc(S(=O)(=O)O)cc1 [Lapatinib, di-p-toluenesulfonate salt] | – | – | – | – | 63.38 | -29.52 | 62.65 | -21.39
CS(=O)(=O)CCNCc1ccc(-c2ccc3ncnc(Nc4ccc(OCc5cccc(F)c5)c(Cl)c4)c3c2)o1 [Lapatinib] | -31.93 | 64.49 | -19.57 | 61.75 | – | – | – | –
Oc1ccc2c(c1)CC[C@H](c1ccccc1)[C@@H]2c1ccc(OCCN2CCCC2)cc1 [Lasofoxifene] | 4.47 | 47.69 | -1.73 | 52.90 | – | – | – | –
Nc1cccc2c1CN(C1CCC(=O)NC1=O)C2=O (stereo not drawn) [Lenalidomide] | – | 47.43 | 4.54 | 49.79 | – | – | – | –
COc1cc2nccc(Oc3ccc(NC(=O)NC4CC4)c(Cl)c3)c2cc1C(N)=O [Lenvatinib] | -19.98 | 58.98 | -15.77 | 59.86 | – | – | – | –
C[C@]12O[C@H](C[C@]1(O)CO)n1c3ccccc3c3c4c(c5c6ccccc6n2c5c31)CNC4=O [Lestaurtinib] | 20.36 | 40.35 | 16.08 | 44.07 | – | – | – | –
N#Cc1ccc(C(c2ccc(C#N)cc2)n2cncn2)cc1 [Letrozole] | 6.85 | 46.59 | 3.67 | 50.22 | – | – | – | –
Nc1nc(OCc2cc(Br)cs2)c2[nH]cnc2n1 [Lomeguatrib] | 5.31 | 47.30 | 8.11 | 48.02 | – | – | – | –
O=NN(CCCl)C(=O)NC1CCCCC1 [Lomustine] | 9.88 | 45.19 | 8.61 | 47.77 | – | – | – | –
CNC(=O)c1ccc(N2C(=S)N(c3ccc(C#N)c(C(F)(F)F)c3)C(=O)C2(C)C)cc1F [MDV3100_Enzaluamide] | -7.19 | 53.07 | -12.48 | 58.23 | – | – | – | –
Nc1ccccc1NC(=O)c1ccc(CNc2nccc(-c3cccnc3)n2)cc1 [MGCD0103_Mocetinostat] | 4.45 | 47.69 | 6.61 | 48.76 | – | – | – | –
COCCNCc1ccc(-c2cc3nccc(Oc4ccc(NC(=S)NC(=O)Cc5ccc(F)cc5)cc4F)c3s2)nc1 [MGCD-265] | 74.52 | 15.34 | 67.97 | 18.33 | – | – | – | –
C=CCn1c(=O)c2cnc(Nc3ccc(N4CCN(C)CC4)cc3)nc2n1-c1cccc(C(C)(C)O)n1 [MK1775] | 5.75 | 47.09 | 1.85 | 51.12 | – | – | – | –
O=C(O)CC[C@H]1CC[C@@](c2cc(F)ccc2F)(S(=O)(=O)c2ccc(Cl)cc2)CC1 [MK-0752] | 11.87 | 44.27 | 9.89 | 47.14 | – | – | – | –
NC1(c2ccc(-c3nc4ccn5c(=O)[nH]nc5c4cc3-c3ccccc3)cc2)CCC1 [MK-2206] | -21.29 | 59.58 | -13.95 | 58.96 | – | – | – | –
Cl.NC(=O)c1cccc2cn(-c3ccc([C@@H]4CCCNC4)cc3)nc12 [MK-4827, HCl salt] | 7.39 | 46.34 | 9.73 | 47.22 | – | – | – | –
NS(=O)(=O)OC[C@@H]1C[C@@H](n2ccc3c(N[C@H]4CCc5ccccc54)ncnc32)C[C@@H]1O [MLN4924] | 2.38 | 48.65 | -0.45 | 52.27 | – | – | – | –
COc1cc(Nc2ncc3c(n2)-c2ccc(Cl)cc2C(c2c(F)cccc2OC)=NC3)ccc1C(=O)O [MLN8237_Alisertib] | 2.09 | 48.78 | 7.11 | 48.51 | – | – | – | –
Cc1ccc(NC(=O)c2ccc(CN3CCN(C)CC3)cc2)cc1Nc1nc(-c2cccnc2)cs1 [Masitinib] | -15.10 | 56.72 | -11.47 | 57.73 | – | – | – | –
CC(=O)O[C@]1(C(C)=O)CC[C@H]2[C@@H]3C=C(C)C4=CC(=O)CC[C@]4(C)[C@H]3CC[C@@]21C [Megestrol acetate] | -14.51 | 56.45 | 7.27 | 48.44 | – | – | – | –
Cl.N[C@@H](Cc1ccc(N(CCCl)CCCl)cc1)C(=O)O [Melphalan hydrochloride] | 8.23 | 45.95 | 3.67 | 50.22 | – | – | – | –
N[C@@H](Cc1ccc(N(CCCl)CCCl)cc1)C(=O)O [Melphalan] | 9.41 | 45.40 | 3.88 | 50.12 | – | – | – | –
S=c1[nH]cnc2nc[nH]c12 [Mercaptopurine] | 7.41 | 46.33 | 10.69 | 46.74 | – | – | – | –
